From the METLIN SMRT retention time set (Domingo-Almenara et al. 2019)

Assay: gradient 5% acetonitrile 3 min, to 50% in 2 min, to 85% in 15 min, held 3 min, 100 µL/min
Conditions: column: Zorbax Extend-C18 2.1 x 50 mm; eluents: water / acetonitrile, 0.1% formic acid
Outline: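 Pure standards were analyzed in mixtures of ~100 molecules using HPLC coupled to a quadrupole time-of-flight mass spectrometer, in both positive and negative ionization mode. Separation used a Zorbax Extend-C18 column (2.1 × 50 mm, 1.8 μm) at 100 μL/min, with water and acetonitrile each containing 0.1% formic acid. Dead and dwell volumes were 40 μL and 900 μL, and data were collected over 3 months. Retention time was read from computationally picked adduct peaks, each inspected manually.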

SMILES	RP-LC retention time
O=C1NCCCn2cc(S(=O)(=O)Nc3ccc(Cl)cc3F)cc21	678 s
O=C(NC1CCCC1)C1CCN(C(=O)c2ccc(-c3noc(C4CC4)n3)cc2)CC1	813 s
COc1cc(N2CCN(C(=O)c3cnccn3)CC2)nc(C)n1	515 s
O=C(Cn1nc2c3cc(-c4ccc(F)cc4)nn3ccn2c1=O)NC1CCCC1	824 s
COc1ccc(CNC(=O)c2c(O)c3cccnc3[nH]c2=O)cc1OC	804 s
COC(=O)c1ccc(NC(=O)NCc2noc3ccc(C)cc23)cc1	868 s
CCOCc1nc(C2CCCN2C(=O)Nc2ccsc2C(=O)OC)no1 (configuration not stated)	626 s
CC1CCN(C(=O)c2cc(S(=O)(=O)N3CCC(C(=O)N4CCCCC4)CC3)cn2C)CC1	796 s
CCN(CC)CCOC(=O)c1cc(Cl)c(N)cc1OC	647 s
CCOC(=O)C1CCN(C(=O)CCc2cc3cc(C)ccc3[nH]c2=O)CC1	729 s
C[C@H]1CC[C@@H]2[C@@H](C)[C@H]3[C@H](C[C@H]4[C@@H]5CC[C@H]6C[C@@H](O)CC[C@]6(C)[C@H]5CC[C@]34C)N2C1	763 s
CCCN1CCN(Cc2nc(-c3ccc(N4CCSCC4)nc3)no2)CC1	615 s
Cc1nnc2ccc(S(=O)(=O)Nc3ccc(F)cc3)cn12	670 s
CCCNC(=O)CCNc1c(-c2ccc(C)cc2)nc2cnccn12	654 s
CC(=O)N1CCCN(C2=NS(=O)(=O)C(c3ccc(C)c(C)c3)=C2C)CC1	630 s
Fc1ccc(F)c(Cn2cccc2-c2nc(-c3ccncc3)no2)c1	1130 s
CCN1c2ccc(C)cc2C(=O)NC12CCN(C(=O)c1cc(OC)cc(OC)c1)CC2	828 s
Cc1ccc(F)c(NS(=O)(=O)c2ccc(-c3nnc(C4CCC4)o3)o2)c1	924 s
CCc1cc(C(=O)Nc2ccc(F)c(F)c2)no1	952 s
O=C(C1CCN(c2ccncc2)CC1)N1CCN(c2ncccn2)CC1	570 s
COc1ccc(C(O)CN2CCN(c3ncccn3)CC2)cc1OC (configuration not stated)	566 s

SMILES	RP-LC retention time
O=C(NCc1nn(Cc2ccccc2)c2ccccc12)c1cnccn1	858 s
COc1ccccc1-c1noc(-c2nc(C)no2)n1	877 s
O=C(Nc1nccs1)C1CCN(C(=O)C2CC(=O)N(c3ccc(F)cc3)C2)CC1 (configuration not stated)	672 s
COc1ccc(NC(=O)c2cnc(N3CCN(CC(=O)N4CCCC4)CC3)nc2N)cc1	586 s
CN(C)CCNC(=O)C1CCN(c2nn3cc(-c4ccc(F)cc4)nc3s2)CC1	636 s
C#CCC(Cc1cnc2nc(N)nc(N)c2n1)c1ccc(C(=O)N[C@@H](CCC(=O)O)C(=O)O)cc1 (some centres not stated)	619 s
CN(C)c1nn(CC(=O)Nc2ccc(Br)cc2)c(=O)c2ccccc12	932 s
Cc1noc(C)c1CNC(=O)NC1CCCCC1	706 s
Cc1ccsc1C(=O)Nc1cccn2nc(C3CCC3)nc12	1030 s
Cc1cccc(NC(=O)N2CCCC2c2cc(C(C)C)on2)c1 (configuration not stated)	967 s
CC(C)(C)c1noc(-c2ccnc(-n3cnc(C(=O)NC4CCCCC4)c3)c2)n1	1100 s
Cc1[nH]c(C(=O)N2CCCC(C(=O)N3CCN(c4ccccc4)CC3)C2)c(C)c1C (configuration not stated)	853 s
CCCc1nnsc1C(=O)Nc1nnc(-c2cc3cccc(OC)c3o2)o1	1170 s
CN1C(=O)CCc2cc(NS(=O)(=O)c3ccc(Br)s3)ccc21	801 s
COCCCNC(=O)C1CCCN(c2cnc3nc(C)c(C)nc3c2)C1 (configuration not stated)	619 s
COCc1noc([C@@H]2CC(F)(F)CN2C(=O)C2CCCC2)n1	810 s
COc1ccc(-c2noc(-c3nnn4c3COC(c3ccc(F)cc3)C4)n2)cc1OC (configuration not stated)	1020 s
CC1=C(c2ccc(C)cc2)S(=O)(=O)N=C1N1CCCN(C(=O)c2ccsc2)CC1	821 s
O=C1CCN(C(=O)c2cccs2)CCOCCN1	585 s
O=C(O)c1ccc(NC(=O)N2C[C@@H]3C[C@@H](C2)c2cccc(=O)n2C3)cc1	592 s
CSc1cccc(NC(=O)CSc2ccc(N3CCCC(C(=O)NC4CC4)C3)nn2)c1 (configuration not stated)	682 s

The remaining lines, values ahead:

RP-LC retention time	SMILES
751 s	Cc1cccc2c(=O)n(C3CCN(C(=O)Nc4ccccc4)CC3)cnc12
1010 s	Cc1ccccc1CNC(=O)C1(C)CCCN(C(=O)Nc2ccccc2C(F)(F)F)C1 (configuration not stated)
1120 s	Cc1cccc(NC(=O)Cn2nc(N3CCCC(C)C3)c3ccccc3c2=O)c1C (configuration not stated)
608 s	O=C(c1ccnc(N2CCNC(c3ccccc3)C2)c1)N1CCN(c2ncccn2)CC1 (configuration not stated)
600 s	COc1ccc(S(=O)(=O)NCCCCN2CCOC(c3ccccc3)C2)c(C)c1 (configuration not stated)
1030 s	O=C(Cc1ccccc1Br)N1CCc2cc(-c3ccno3)ccc21
989 s	CCCCn1cc(S(=O)(=O)Nc2ccc(F)cc2C)c2cccnc21
747 s	CCc1ccccc1NC(=O)COc1nc(C)nc2ccccc12
819 s	CC(C)CN1C(=O)CCc2cc(NS(=O)(=O)c3cccs3)ccc21
631 s	COc1cccc(-c2nc(CS(=O)(=O)CC(=O)N3CCN(c4ccccn4)CC3)c(C)o2)c1
792 s	CCn1c(=O)sc2cc(S(=O)(=O)N3CCC(C(=O)NCc4ccco4)CC3)ccc21
749 s	COc1ccc(C2(CNC(=O)c3cc(-c4ccccc4)n[nH]3)CCOCC2)cc1
947 s	O=C(Cn1nc2nc(N3CCCC3)ccn2c1=O)NCCc1ccccc1
1030 s	O=C(NC1CCCC1)N1CCN(c2nc3cccnc3n(Cc3ccccc3)c2=O)CC1
1320 s	CCOc1ccccc1NC(=O)C1CCCN(c2nc3ccccc3nc2OCC)C1 (configuration not stated)
590 s	Cc1cc(NCc2ccccn2)n2c(nc3ccccc32)c1C#N
656 s	CCNC(=O)CN1C(=O)CCn2nc(-c3cn(C)c4ccccc34)cc21
873 s	CN(C)S(=O)(=O)c1ccc(C(=O)N2CC(=O)Nc3ccc(Cl)cc3C2c2ccccc2)cc1 (configuration not stated)
714 s	CCC(=O)N1CCc2cc(N3CC(C(=O)Nc4ccc(OC)cc4)CC3=O)ccc21 (configuration not stated)
852 s	Cc1ccc(C)c(NC(=O)Cn2c(=O)n(-c3ccccc3)c3ncccc32)c1
665 s	Cc1ccc(CC(=O)NC(C)C(=O)Nc2nc3ccccc3[nH]2)cc1 (configuration not stated)
645 s	CCCNC(=O)C1CCN(c2ccc(SCC(=O)NCc3ccccc3)nn2)CC1
937 s	Cc1ccccc1CNC(=O)C1(C)CCCN(C(=O)Nc2cccc(F)c2)C1 (configuration not stated)
981 s	Cc1ccc(F)cc1S(=O)(=O)N1CCc2c(c(-c3nnc(-c4ccccc4F)o3)nn2C)C1
667 s	COCCCNC(=O)C1CC(=O)N(CCc2c[nH]c3ccc(C)cc23)C1 (configuration not stated)
